# Where a SMILES comes first, the peptide text is derived from it. The star is where a group is joined. Cbz = O=C(OCc1ccccc1)*
# Columns and labels:
# [1] = test system: BL cell lines (NAMALWA, Ramos, CA-46, Daudi); test: Proliferation assay (CellTiter-Glo) in BL cell lines; type: cell-based; settings: pomalidomide alone up to 10 μM; 72 hours
# Experimental: To assess the effect of the inhibitors on proliferation, cells (50,000/100 μl) were seeded in 96-well tissue culture plates followed by addition of compound at the indicated concentration. After 72 hours, 100 μL per well of reconstituted CellTiter-Glo (CTG) reagent (#G7572 from Promega) was added and read on Cytation 3 imaging reader from BioTek. Relative cell growth was determined by comparing assay readings of treated cells with control DMSO treated cells.
# Specifically, NAMALWA, Ramos, CA-46, and Daudi cell lines were seeded at 50,000 cells/100 μl in 96-well plates. […] Following treatment, the relative proliferation of the samples was determined by CTG assay 72 hours following treatment.
# Cells were re-seeded in fresh medium and incubated without any compound for 0 hr, 24.0 hr, and 48.0 hr. In a parallel control experiment, cells were treated in the same manner, except DMSO was used in place of inhibitor. Following treatment, the relative proliferation of the samples was determined by CTG assay.
# In a parallel control experiment, cells were treated in the same manner, except DMSO was used in place of inhibitor. Following treatment, the relative proliferation of the samples was determined by CTG assay.
# In a parallel experiment, cells were treated in the same manner, except DMSO was used in place of pomalidomide.
# BRD4 = molecular target: T1, BRD4 (Homo sapiens, UniProt O60885); test: Western blot analysis of BRD4 in BL cell lines; type: cell-based; settings: overnight; for effect of proteasome inhibitor on A825-induced BRD4 degradation: inhibitor 5 μM with A825 10 nM or 100 nM, NAMALWA cells
# T1 construct: endogenous in cells; host or cells: NAMALWA, Ramos, CA-46, DAUDI
# Experimental: (§1) Cultured cells were collected in lysis buffer containing 40 mM HEPES (pH 7.4), 140 mM NaCl, 2.5 mM EDTA, 1% NP-40, 0.1% SDS and protease inhibitor cocktail. After 10 minutes of centrifugation (14000 rpm), supernatant was collected for protein concentration determination by BCA method and subjected for immunoblotting by standard protocol. Western blot results were visualized using Bio-Rad Clarity ECL Western Blotting Substrate on Bio-Rad ChemiDoc™ MP imaging system.
# A separate set of cells were treated in the same manner, except that DMSO was used in place of the inhibitor. […] Following treatment, cell lysates were collected and analyzed by immunoblot for BRD4 and Actin.
# Specifically, NAMALWA and Ramos cells were treated with 300 nM of each inhibitor for 0 hr, 0.5 hr, 1.0 hr, 2.0 hr, 4.0 hr, 7.0 hr, 24 hr, and 48.0 hr. Following treatment, cell lysates were collected and analyzed by immunoblot for BRD4 and Actin.
# (§2) Following treatment, cell lysates were collected and analyzed by immunoblot for BRD4 and Actin.
# as §2, §2, §2
# (§3) Cells were re-seeded in fresh medium and incubated without any compound for 0 hr, 2.0 hr, 4.0 hr, 6.0 hr, and 24.0 hr. In a parallel control experiment, cells were treated in the same manner, except DMSO was used in place of inhibitor. Lysates were collected and analyzed by immunoblot for BRD4, c-Myc, and Actin.
# PARP = PARP cleavage immunoblot in BL cells; type: cell-based; settings: 48 hours; A825 0.1 uM, JQ1 and OTX15 up to 10.0 μM; Ramos cells
# Experimental: as §1
# Lysates were collected and analyzed by immunoblot for PARP cleavage with actin as loading control.
# c-Myc = test: Western blot analysis of c-Myc in BL cell lines; type: cell-based; settings: NAMALWA cells; for c-Myc protein level (immunoblot): overnight
# Experimental: as §1
# A separate set of cells were treated in the same manner, except that DMSO was used in place of the inhibitor. Following treatment, cell lysates were collected and analyzed by immunoblot for c-Myc and Actin.
# Cells were re-seeded and incubated without inhibitor for 0 hr, 0.5 hr, 1.0 hr, 2.0 hr, 3.0 hr, 4.0 hr, and 6.0 hr. Cell lysates were then collected at the various time points and analyzed by immunoblot for c-Myc and Actin. In a parallel control experiment, NAMALWA cells were treated in the same manner, except DMSO was used in place of JQ1.
# After treatment, the cells were either lysed (to evaluate the suppression of c-Myc by the inhibitors) or washed to remove the inhibitor, re-seeded, and incubated without inhibitor for 4.0 hours (to evaluate the reversibility of c-Myc suppression). Cell lysates were collected and analyzed by immunoblot for c-Myc and Actin.
# Following treatment, cell lysates were collected and analyzed by immunoblot for BRD4, c-Myc and Actin.
# as §3
# CRBN = CRBN (Homo sapiens, UniProt Q96SW2); test: Surface plasmon resonance with immobilized His-tagged cereblon; settings: SPR; average of at least 2 experiments; N.B - no binding observed
# Experimental: With unprecedented access to novel analogues of ImiDs, the structure-activity relationships with respect to Cereblon binding and the degradation of Aiolos (IKZF3) and CK1αwe were explored. To assess binding of ImiD analogues to Cereblon directly, an SPR assay with His-tagged Cereblon immobilized was employed. Dose-response curves were measured for each analogue and Kd values calculated.
# Surface Plasmon Resonance
# The surface plasmon resonance (SPR) experiments were conducted on a S200 Biacore (GE Healthcare). His-tagged cereblon protein was immobilized on a carboxymethylated dextran surface with nitriloacetic acid (NTA), taking advantage of NTA/Ni2+ chelation. The prepared surface equilibrated overnight in running buffer (10 mM HEPES buffer @ pH 7.4, 150 mM NaCl, 0.4 mg/mL BSA, 0.005% P20, 2% DMSO).
# All compounds were prepared in 100% DMSO stock plates with a top concentration of 5 mM in a 3× serial dilution. Compounds were transferred from the stock plate to the assay plate and diluted into running buffer containing no DMSO.
# Data analysis was performed in S200 Bia-evaluation software (GE Healthcare). Blanks were subtracted and data was corrected for DMSO using a standard DMSO curve.
# androgen receptor (AR) = molecular target: T2, androgen receptor (AR) (Homo sapiens, UniProt P10275); test: AR ELISA protocol, degradation in VCaP cells; type: cell-based; settings: 1 uM, 16 h
# T2 construct: detects endogenous levels of total androgen receptor protein; endogenous in cells; host or cells: VCaP
# T2 sequence (P10275 1-920): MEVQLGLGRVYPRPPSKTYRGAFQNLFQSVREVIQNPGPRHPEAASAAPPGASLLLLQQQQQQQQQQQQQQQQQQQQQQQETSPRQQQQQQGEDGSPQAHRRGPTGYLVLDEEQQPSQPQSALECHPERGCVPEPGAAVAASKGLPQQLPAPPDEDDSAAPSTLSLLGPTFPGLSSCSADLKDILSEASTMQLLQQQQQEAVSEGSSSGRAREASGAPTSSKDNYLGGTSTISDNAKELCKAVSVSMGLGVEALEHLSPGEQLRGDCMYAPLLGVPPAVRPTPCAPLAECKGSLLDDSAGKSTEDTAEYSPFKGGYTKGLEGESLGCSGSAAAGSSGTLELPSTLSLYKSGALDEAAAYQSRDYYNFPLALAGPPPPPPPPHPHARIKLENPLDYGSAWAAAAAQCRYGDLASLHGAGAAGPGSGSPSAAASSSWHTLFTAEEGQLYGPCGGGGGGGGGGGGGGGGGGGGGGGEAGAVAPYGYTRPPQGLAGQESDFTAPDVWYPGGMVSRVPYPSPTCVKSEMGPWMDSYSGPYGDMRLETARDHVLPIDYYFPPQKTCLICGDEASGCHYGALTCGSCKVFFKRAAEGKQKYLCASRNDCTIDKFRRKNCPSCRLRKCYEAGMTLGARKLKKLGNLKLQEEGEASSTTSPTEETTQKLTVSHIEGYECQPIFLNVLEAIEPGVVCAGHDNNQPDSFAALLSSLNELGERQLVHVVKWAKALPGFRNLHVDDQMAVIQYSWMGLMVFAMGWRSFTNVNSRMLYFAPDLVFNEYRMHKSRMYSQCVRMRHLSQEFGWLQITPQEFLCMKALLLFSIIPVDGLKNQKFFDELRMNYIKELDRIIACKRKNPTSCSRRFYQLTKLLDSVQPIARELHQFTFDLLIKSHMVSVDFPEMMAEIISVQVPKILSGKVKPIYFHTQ
# Experimental: In each bioassay, cells were treated with varying amounts of compounds encompassed by the present disclosure, as shown in Table 1. The degradation of the following proteins were evaluated in this study: TANK-binding kinase 1 (TBK1), estrogen receptor α (ERα), bromodomain-containing protein 4 (BRD4), androgen receptor (AR), and c-Myc.
# VCaP cells were purchased from ATCC and cultured in Dulbecco's Modified Eagle's Medium (ATCC), supplemented with 10% FBS (ATCC) and Penicillin/Streptomycin (Life Technologies). DMSO control and compound treatments (0.0001 μM-1 μM) were performed in 96-well plates for 16 h. Cells were harvested, and lysed with Cell Lysis Buffer (Catalog #9803) (20 mM Tris-HCL (pH 7.5), 150 mM NaCl, 1 mM Na2EDTA, 1 mM EGTA, 1% Triton, 2.5 mM sodium pyrophosphate, 1 mM B-glycerophosphate, 1 mM Na3VO4, 1 ug/ml leupeptin. Lysates were clarified at 16,000 g for 10 minutes, and loaded into the PathScan AR ELISA (Cell Signaling Catalog #12850). The PathScan® Total Androgen Receptor Sandwich ELISA Kit is a solid phase sandwich enzyme-linked immunosorbent assay (ELISA) that detects endogenous levels of total androgen receptor protein. An Androgen Receptor Rabbit mAb has been coated onto the microwells. After incubation with cell lysates, androgen receptor protein is captured by the coated antibody. Following extensive washing, an Androgen Receptor Mouse Detection mAb is added to detect the captured androgen receptor protein. Anti-mouse IgG, HRP-linked Antibody is then used to recognize the bound detection antibody. HRP substrate, TMB, is added to develop color. The magnitude of absorbance for the developed color is proportional to the quantity of total androgen receptor protein. Antibodies in kit are custom formulations specific to kit.
# Sequence of CRBN (Q96SW2 whole entry): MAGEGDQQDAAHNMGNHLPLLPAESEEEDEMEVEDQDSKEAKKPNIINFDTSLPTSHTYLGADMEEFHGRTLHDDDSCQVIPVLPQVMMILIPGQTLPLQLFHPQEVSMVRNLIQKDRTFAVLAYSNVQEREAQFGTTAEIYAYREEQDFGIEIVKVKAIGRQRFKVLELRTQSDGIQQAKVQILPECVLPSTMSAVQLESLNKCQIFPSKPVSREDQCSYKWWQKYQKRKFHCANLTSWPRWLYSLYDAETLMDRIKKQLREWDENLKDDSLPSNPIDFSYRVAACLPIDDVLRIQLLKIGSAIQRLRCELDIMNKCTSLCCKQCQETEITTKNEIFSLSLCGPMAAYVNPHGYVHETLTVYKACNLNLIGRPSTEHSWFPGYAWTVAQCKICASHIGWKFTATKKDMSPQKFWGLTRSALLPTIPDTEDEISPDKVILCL
compound,measurement,setting,value
"Nc1cccc2c1C(=O)N(C1CCC(=O)NC1=O)C2=O (stereo not drawn) [Pomalidomide, pomalidomide, reference compound]",effect on BL cell proliferation,[1],did not result in a significant effect on the proliferation
same,BRD4 protein level (immunoblot),"BRD4; pomalidomide 10 μM alone, NAMALWA and Ramos cells",not affected
CC(C)C[C@@H](C=O)NC(=O)[C@H](CC(C)C)NC(=O)[C@H](CC(C)C)NC(=O)OCc1ccccc1 [MG132] (Cbz-Leu-Leu-Leu-aldehyde),effect of proteasome inhibitor on A825-induced BRD4 degradation,BRD4,completely prevented BRD4 degradation
CC(C)C[C@H](NC(=O)[C@H](CCc1ccccc1)NC(=O)CN1CCOCC1)C(=O)N[C@@H](Cc1ccccc1)C(=O)N[C@@H](CC(C)C)C(=O)[C@@]1(C)CO1 [Carfizomib],effect of proteasome inhibitor on A825-induced BRD4 degradation,BRD4,completely prevented BRD4 degradation
Cc1sc2c(c1C)C(c1ccc(Cl)cc1)=N[C@@H](CC(=O)Nc1ccc(O)cc1)c1nnc(C)n1-2 [OTX-15],apoptosis by PARP cleavage,PARP,significantly higher dose
same,c-Myc protein level (immunoblot),c-Myc; 100 nM to 1000 nM,significant suppression
same,c-Myc protein level (immunoblot),c-Myc; up to 3000 nM,neither JQ1 nor OTX-15 was able to completely suppress c-Myc expression
CC(C)(C)c1ccc2c(c1)C(=O)N(C1CCC(=O)NC1=O)C2=O (stereo not drawn) [Compound 11],Kd,CRBN,221 ± 52 nM
O=C1CCC(N2C(=O)c3cccc4cccc(c34)C2=O)C(=O)N1 (stereo not drawn) [Compound 12],Kd,CRBN,111 ± 6 nM
"CC1(C)C(=O)N(c2ccc(C#N)c(C(F)(F)F)c2)C(=S)N1c1ccc(OCCOCCOCCOCCNc2cccc3c2C(=O)N([C@@H]2CCC(=O)NC2=O)C3=O)cc1 [Compound 5, (R)-4-(3-(4-(2-(2-(2-(2-((2-(2,6-dioxopiperidin-3-yl)-1,3-dioxoisoindolin-4-yl)amino)ethoxy)ethoxy)ethoxy)ethoxy)phenyl)-4,4-dimethyl-5-oxo-2-thioxoimidazolidin-1-yl)-2-(trifluoromethyl) benzonitrile]",Dmax at 1 µM,androgen receptor (AR),31 to 50%
"CC1(C)C(=O)N(c2ccc(C#N)c(C(F)(F)F)c2)C(=S)N1c1ccc(OCCOCCOCCOCCNc2cccc3c2C(=O)N([C@H]2CCC(=O)NC2=O)C3=O)cc1 [Compound 4, (S)-4-(3-(4-(2-(2-(2-(2-((2-(2,6-dioxopiperidin-3-yl)-1,3-dioxoisoindolin-4-yl)amino)ethoxy)ethoxy)ethoxy)ethoxy)phenyl)-4,4-dimethyl-5-oxo-2-thioxoimidazolidin-1-yl)-2-(trifluoromethyl) benzonitrile]",Dmax at 1 µM,androgen receptor (AR),31 to 50%
CC1(C)C(=O)N(c2ccc(C#N)c(C(F)(F)F)c2)C(=S)N1c1ccc(OCCCOCCCOCCNc2cccc3c2C(=O)N(C2CCC(=O)NC2=O)C3=O)cc1 (stereo not drawn) [Compound 2],Dmax at 1 µM,androgen receptor (AR),31 to 50%
Cc1sc2c(c1C)C(c1ccc(Cl)cc1)=N[C@@H](CC(=O)OC(C)(C)C)c1nnc(C)n1-2 [JQ1],apoptosis by PARP cleavage,PARP,significantly higher dose
same,c-Myc protein level (immunoblot),c-Myc; 100 nM to 1000 nM,significant suppression
same,time for c-Myc protein to return to control level after inhibitor removal,"c-Myc; 1000 nM 24 h, washout",≤ 3.0 h
same,c-Myc protein level (immunoblot),c-Myc; up to 3000 nM,neither JQ1 nor OTX-15 was able to completely suppress c-Myc expression
CC1(C)[C@H](NC(=O)c2ccc(OCCCCCOCCCNc3cccc4c3C(=O)N(C3CCC(=O)NC3=O)C4=O)cc2)C(C)(C)[C@H]1Oc1ccc(C#N)c(Cl)c1 (stereo partly drawn) [Compound 11],Dmax at 1 µM,androgen receptor (AR),> 50%
O=C1CCC(N2C(=O)c3ccc([N+](=O)[O-])cc3C2=O)C(=O)N1 (stereo not drawn) [Compound 16],Kd,CRBN,> 11000 nM

# — patent US11834460B2, “Imide-based modulators of proteolysis and associated methods of use” (YALE UNIVERSITY, priority 2018, dated 2023)
